In US20100068150A1, “Selective Caspase Inhibitors” (The Board of Trustees of the Leland Stanford Junior …, priority 2006, published 2010):

Legend:
Caspase-9 = target: T1, Caspase-9 (Homo sapiens, UniProt P55211); assay: Kinetic compound screening, progress curve method, caspase-9; type: biochemical; details: NI = no inhibition at concentrations tested; for Ki(app) Caspase-9: Table III, Ki(app) = Kass or Kobs/I, 50 nM active caspase-9; for Caspase-9 Ki (app): Table IV
T1 sequence (P55211 1-416): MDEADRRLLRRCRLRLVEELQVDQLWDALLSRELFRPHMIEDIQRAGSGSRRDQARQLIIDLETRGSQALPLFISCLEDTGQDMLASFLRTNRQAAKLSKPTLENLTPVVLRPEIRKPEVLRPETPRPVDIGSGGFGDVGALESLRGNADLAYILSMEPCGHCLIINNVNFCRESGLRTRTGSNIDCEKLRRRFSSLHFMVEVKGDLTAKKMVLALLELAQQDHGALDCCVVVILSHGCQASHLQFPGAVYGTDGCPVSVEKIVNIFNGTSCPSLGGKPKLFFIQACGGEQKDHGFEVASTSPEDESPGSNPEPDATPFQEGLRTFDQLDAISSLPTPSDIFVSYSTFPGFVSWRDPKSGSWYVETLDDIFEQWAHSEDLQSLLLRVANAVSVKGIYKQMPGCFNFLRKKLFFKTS
In short: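 Progress-curve method under pseudo-first-order kinetics, giving Ki(app) (kobs/I, M^−1s^−1), in caspase reaction buffer. Active enzyme at 5 nM (caspase-3, -7), 10 nM (caspase-8) or 50 nM (caspase-9), preactivated at 37 °C for 5, 10 or 40 min respectively. Some caspase-9 compounds also run with 1 M sodium citrate replacing sucrose.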

[1] = system: endogenous caspases-3, 7, 9 and exogenous recombinant caspase-8 in 293 extracts; assay: Labeling in 293 extracts with exogenous recombinant caspase-8 and cytochrome c/dATP; type: binding
Experimental: (a.) Hypotonic 293 cytosolic extracts were induced to undergo intrinsic apoptosis by addition of cytochrome c/dATP. […] Samples were analyzed by SDS-PAGE followed by biotin blotting using streptavidin-HRP. (b) The identity of individual caspases was confirmed via immunoprecipitation using specific anti-sera for caspases-3, 7 and 9 (also see FIG. 5B for immunoprecipitation of caspases-3 and 7 after KMB01 labeling). Extracts (293) were activated with cytochrome c/dATP for 10 minutes, labeled by addition of indicated probes (100 nM final concentration for bAB06 and bAB13 and 10 μM final concentration for KMB01) and labeled caspases precipitated using specific anti-sera as described in the Methods section. I is input, P is pellet, S is supernatant after specific precipitation. […] Labeling of caspases was monitored by SDS-PAGE followed by biotin blotting with streptavidin-HRP. […]
Selective labeling of endogenous caspases in cell extracts and live cells with active site probes was carried out as follows: Hypotonic 293 cytosolic extracts were induced to undergo intrinsic apoptosis by addition of cytochrome c/dATP. […] Samples were analyzed by SDS-PAGE followed by biotin blotting using streptavidin-HRP. […] Labeling of caspases was monitored by SDS-PAGE followed by biotin blotting with streptavidin-HRP. […]
Protein concentration of hypotonic extracts was measured using a standard Bradford Protein Assay (BioRad). […]

| Compound | Ki(app) Caspase-9 (Caspase-9) | Caspase-9 Ki (app) (Caspase-9) | inhibition of caspases in 293 extracts with added caspase-8 ([1]; AB06 10 μM added in conjunction with cytochrome c/dATP) | labeling of caspases in 293 extracts with added caspase-8 ([1]; recombinant caspase-8 100 nM, cytochrome c/dATP, probes 10 μM, 30 min) |
| --- | --- | --- | --- | --- |
| Cc1cccc(C)c1C(=O)OCC(=O)[C@H](CC(=O)O)NC(=O)[C@@H](NC(=O)[C@H](CCC(=O)O)NC(=O)[C@H](CC(=O)O)NC(=O)Cc1ccc(O)c([N+](=O)[O-])c1)C(C)C [AB09, Np-D-E- V-D-DMBA] | <5,000 M^−1s^−1 | <5,000 M-1s-1 |  |  |
| Cc1cccc(C)c1C(=O)OCC(=O)[C@H](CC(=O)O)NC(=O)[C@@H](NC(=O)[C@H](Cc1ccncc1)NC(=O)[C@H](CC(=O)O)NC(=O)Cc1ccc(O)c([N+](=O)[O-])c1)C(C)C [AB06, Np-D-3-V-D-DMBA] |  |  | caspases-3 and 7 were selectively inhibited |  |
| Bio-EVD-AOMK [KMB01, reference compound] | 175,210 M^−1s^−1 | 210 M⁻¹ s⁻¹ |  | strong labeling of the endogenous caspases-3, 7, and 9 as well as the exogenously added caspase-8 |
